± gives the expanded uncertainty stated by the source.

Drawing on the NIST ThermoML archive (doi:10.1016/j.jct.2010.08.021), this text covers mass density for 3 molecules.

The nature of the series: mn = molality of the nth substance listed, in mol/kg. Conditions: 283.15 K; 101 kPa; Liquid; Vibrating tube method; m2 = 0.

One may read the mass density as mass per unit of volume. As for `O` [water] + N.N.O=C(O)CC(O)(CC(=O)O)C(=O)O, the mass density worked out at 999.699 ± 0.15 kg/m3.

In the case of `O` [water] + NCC(=O)O, the mass density worked out at 999.699 ± 0.11 kg/m3.

As to `O` [water] + N[C@@H](CO)C(=O)O, the mass density worked out at 999.699 ± 0.12 kg/m3.
